Measured values: PubChem BioAssay (NCI)
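Step 1: Grow cells in 96-well plates. Step 2: Expose to compound for 48 hours at 5 concentrations. Step 3: Interpolate endpoints linearly; if unreached, use highest concentration. GI50 = concentration required for 50% inhibition of growth. Definition used: TGI = concentration required for complete inhibition of growth.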

Experiments:
Assay in all cases: NCI anticancer screen, dose series, 48 h
HCT-15 colon = test system: HCT-15 colon
HL-60(TB) leukemia = test system: HL-60(TB) leukemia
HS 578T breast = test system: HS 578T breast
HT29 colon = test system: HT29 colon
IGROV1 ovarian = test system: IGROV1 ovarian
MALME-3M melanoma = test system: MALME-3M melanoma
OVCAR-5 ovarian = test system: OVCAR-5 ovarian
RXF 393 renal = test system: RXF 393 renal
SNB-19 CNS = test system: SNB-19 CNS
UACC-257 melanoma = test system: UACC-257 melanoma

SMILES | TGI (HCT-15 colon) | TGI (HL-60(TB) leukemia) | TGI (HS 578T breast) | TGI (HT29 colon) | TGI (IGROV1 ovarian) | TGI (MALME-3M melanoma) | TGI (OVCAR-5 ovarian) | TGI (RXF 393 renal) | TGI (SNB-19 CNS) | TGI (UACC-257 melanoma) | GI50 (HCT-15 colon) | GI50 (HL-60(TB) leukemia) | GI50 (HS 578T breast) | GI50 (HT29 colon) | GI50 (OVCAR-5 ovarian) | GI50 (UACC-257 melanoma) | GI50 (IGROV1 ovarian) | GI50 (MALME-3M melanoma) | GI50 (SNB-19 CNS)
O=C1NC2(CCCCC2)N=C2C(Cl)CCCC12Cl (configuration not stated) | > 100 µM | > 100 µM | > 100 µM | > 100 µM | > 100 µM | > 100 µM | > 100 µM | > 100 µM | > 100 µM |  |  |  |  |  |  |  |  |  | 
CC[C@@]1(O)C(=O)OCc2c1cc1n(c2=O)Cc2c-1nc1ccccc1c2CC[Si](C)(C)C | > 100 µM | > 100 µM | > 100 µM | > 40.6 µM | > 100 µM | 0.155 µM | 6.59 µM | 0.371 µM | > 100 µM |  |  |  |  |  |  |  |  |  | 
CC(=O)Nc1ncc(Sc2ccccc2C(=O)O)s1 | > 100 µM | > 100 µM | > 100 µM | > 100 µM | > 100 µM |  | > 100 µM | > 100 µM | > 100 µM | > 100 µM |  |  |  |  |  |  |  |  | 
CC(=O)O[C@H]1CC[C@]2(C)[C@H]3CC[C@@H]4[C@H]5[C@H](C(C)C)CC[C@]5(C(=O)OCC(CO)(CO)N=C(N)N)CC[C@@]4(C)[C@]3(C)CC[C@H]2C1(C)C | 3.71 µM | 4.26 µM | 5.04 µM | 3.29 µM |  |  | 3.09 µM |  |  | 3.97 µM | 1.79 µM | 1.79 µM | 2.05 µM | 1.75 µM | 1.67 µM | 1.82 µM |  |  | 
CC(=O)[O-].CC(=O)[O-].O=C(N/N=C/c1cc(Cl)cc(Cl)c1[OH2+])c1ccncc1.[Co+2] | > 100 µM | > 100 µM |  | > 100 µM | > 100 µM | > 100 µM | > 100 µM | > 100 µM | > 100 µM | > 100 µM |  |  |  |  |  |  |  |  | 
COc1ccc(/C=C2\CSC/C(=C\c3ccc(OC)c(OC)c3OC)C2=O)c(OC)c1OC | 74.1 µM | 72.1 µM |  | > 100 µM | > 100 µM | 27.6 µM | > 100 µM | 53.7 µM | > 100 µM | > 100 µM |  |  |  |  |  |  |  |  | 
COC(=O)C1=Nc2c(C)nn(-c3ccccc3)c2N=C(c2ccc(C)cc2)C1 | > 10 µM | > 10 µM | > 10 µM | > 10 µM | > 10 µM | > 10 µM |  |  | > 10 µM | > 10 µM |  |  |  |  |  |  |  |  | 
O=C1C2C=CC1C1C(=O)OC(=O)C21 (configuration not stated) | > 100 µM | > 100 µM | > 100 µM | > 100 µM | > 100 µM | > 100 µM | > 100 µM |  | > 100 µM | > 100 µM |  |  |  |  |  |  |  |  | 
CC(C)(C)c1ccc(CN2CCN(C(c3ccccc3)c3ccc(Cl)cc3)CC2)cc1 (configuration not stated) | > 100 µM |  | > 100 µM | 56.9 µM | > 100 µM | > 100 µM | > 100 µM | 82.7 µM | > 100 µM | > 100 µM |  |  |  |  |  |  |  |  | 
O=C1OCC(C#Cc2ccccc2)=C1Cl | 15.7 µM |  | 18 µM | 12.9 µM | > 100 µM | 36.5 µM | 15 µM |  | 67.9 µM | 40.2 µM | 4.36 µM |  | 2.46 µM | 1.05 µM | 3.59 µM | 4.34 µM | 1.88 µM | 13.4 µM | 7.49 µM
COC(=O)CC1(CNC(=O)OCc2ccccc2)OCCO1 | > 100 µM | > 100 µM |  |  | > 100 µM | > 100 µM | > 100 µM | > 100 µM | > 100 µM | > 100 µM |  |  |  |  |  |  |  |  | 
